Experimental data taken from article PMC10945480 (Journal of Medicinal Chemistry, 2024).
Where two headings read alike, the source gives them in different places.

Tests used:
A549 cancer cells = assay: Platelet-enhanced tumor cell proliferation; assay type: cell-based, human; settings: A549 plus platelets, 48 h, 0.5 to 2 μM
Procedure: In order to examine platelet-enhanced cancer cell growth, A549 cancer cells were coincubated with platelets for 48 h.
Figure 5 Inhibitory effects of JUG derivatives 18 and 22 on tumor cell-induced platelet secretion and platelet-enhanced tumor cell proliferation. (a) Washed human platelets were coincubated with A549 cancer cells under the same conditions as described in Figure 4. Secretion of PDGF and ATP were determined with the enzyme-linked immunosorbent assay (ELISA) and bioluminescent assay, respectively. (b) A549 cancer cells were coincubated with washed human platelets at 37 °C and 5% CO2 in a cell culture incubator for 48 h. After washing with PBS, the numbers of viable cancer cells were determined by trypan blue exclusion. Data are mean ± SEM of at least three independent experiments. In (a), *P < 0.05; **P < 0.01; ***P < 0.001 as compared with vehicle control (DMSO). In (b), *P < 0.05; **P < 0.01; ***P < 0.001 as compared with A549 cells plus platelets.
A549 cells (1 × 10^4 cells/well) were seeded in a 96-well plate and coincubated with wash human platelets (1 × 10^7 cells/well) containing with 0.375% plasma for 48 h at 37 °C and 5% CO2 in a cell culture incubator. After washing with phosphate buffered saline, the numbers of viable cancer cells were determined by trypan blue exclusion.

[1] = system: multiple myeloma RPMI8226; assay: Cell viability, resazurin assay, RPMI8226; settings: for IC50: Homo sapiens
Procedure: (§2) Cells were maintained in a humidified incubator at 37 °C in 5% CO2, and cell viability was determined with the resazurin assay (Cayman Chemical, USA) after the incubation with compounds for indicated concentrations and times or DMSO as control.[72]

[2] = Parallel artificial membrane permeability assay (PAMPA); settings: 50 μM, 25 ℃, 3 h, verapamil = 100%, ranitidine = 0%
Procedure, shortened: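 Donor wells held 50 μM compound (DMSO <1% v/v, diluted from 10 mM stocks) in buffer; filter membrane coated with 2% w/v DOPC in n-dodecane. Sandwich incubated 3 h at 25 ℃, then donor and acceptor drug amounts quantified by UV spectra (220–400 nm) against reference standards.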

washed human platelets [3] = assay: Collagen-induced platelet aggregation; assay type: cell-based; settings: Platelet; washed human platelets, collagen (5 μg/mL)
Procedure, shortened: (§1)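 Washed platelets from ACD-anticoagulated blood of healthy donors, stirred at 1200 rpm, 37 °C in a turbidimetric aggregometer. Aggregation triggered by U46619 or collagen, scored as maximal rise in light transmission.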

platelet surface PDI = platelet surface PDI (Homo sapiens, UniProt P07237); assay: Cell surface PDI reductase activity on intact human platelets (Di-E-GSSG assay)
Chain of platelet surface PDI (P07237 18-508): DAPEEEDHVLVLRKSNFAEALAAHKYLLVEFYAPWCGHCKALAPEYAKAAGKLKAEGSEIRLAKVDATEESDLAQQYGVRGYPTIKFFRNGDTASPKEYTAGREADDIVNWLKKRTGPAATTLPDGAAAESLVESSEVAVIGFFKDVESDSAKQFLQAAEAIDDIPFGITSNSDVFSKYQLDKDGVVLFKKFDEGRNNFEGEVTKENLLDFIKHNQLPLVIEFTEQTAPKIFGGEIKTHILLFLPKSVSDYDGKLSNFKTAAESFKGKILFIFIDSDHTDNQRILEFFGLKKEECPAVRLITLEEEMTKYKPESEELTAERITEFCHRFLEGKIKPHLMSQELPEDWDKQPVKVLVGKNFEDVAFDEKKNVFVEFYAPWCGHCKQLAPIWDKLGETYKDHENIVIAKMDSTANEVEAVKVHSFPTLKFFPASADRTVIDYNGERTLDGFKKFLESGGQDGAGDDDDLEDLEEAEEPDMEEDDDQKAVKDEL
Procedure: (§3) In this assay, a nonfluorescent substrate, dieosin glutathione disulfide (Di-E-GSSG), was reduced into a fluorescent product eosin-glutathione (E-GSH) by platelet surface PDI in the presence of 5 μM dithiothreitol (DTT).

[4] = system: human vascular endothelial EA.hy926 cells; assay: Cell viability, resazurin assay, EA.hy926; settings: EA.hy 926, 24 h, read-out: EAhy926 IC50
Procedure: as §2

washed human platelets [5] = assay: U46619-induced platelet aggregation; assay type: cell-based; settings: Platelet; washed human platelets, U46619 (1 μM)
Procedure, shortened: as §1

breast cancer MDA-MB-231 = assay: Cell viability, resazurin assay, MDA-MB-231; settings: Homo sapiens, MDA-MB-231, 24 h, read-out: MDA-MB-231 IC50
Procedure: as §2

glioma U87 = assay: Cell viability, resazurin assay, U87; settings: Homo sapiens, 24 h, read-out: U87 IC50
Procedure: as §2

[6] = target: purified human recombinant PDI (rPDI) (Homo sapiens, UniProt P07237); assay: Recombinant PDI reductase activity (Di-E-GSSG assay)
Chain of purified human recombinant PDI (rPDI) (P07237 18-508): as above
Procedure: as §3

ERp72 (PDIA4) = target: T1, ERp72 (PDIA4) (Homo sapiens, UniProt P13667); assay: ERp72 reductase assay (Di-E-GSSG); assay type: biochemical; settings: human recombinant
T1 sequence (P13667 21-645): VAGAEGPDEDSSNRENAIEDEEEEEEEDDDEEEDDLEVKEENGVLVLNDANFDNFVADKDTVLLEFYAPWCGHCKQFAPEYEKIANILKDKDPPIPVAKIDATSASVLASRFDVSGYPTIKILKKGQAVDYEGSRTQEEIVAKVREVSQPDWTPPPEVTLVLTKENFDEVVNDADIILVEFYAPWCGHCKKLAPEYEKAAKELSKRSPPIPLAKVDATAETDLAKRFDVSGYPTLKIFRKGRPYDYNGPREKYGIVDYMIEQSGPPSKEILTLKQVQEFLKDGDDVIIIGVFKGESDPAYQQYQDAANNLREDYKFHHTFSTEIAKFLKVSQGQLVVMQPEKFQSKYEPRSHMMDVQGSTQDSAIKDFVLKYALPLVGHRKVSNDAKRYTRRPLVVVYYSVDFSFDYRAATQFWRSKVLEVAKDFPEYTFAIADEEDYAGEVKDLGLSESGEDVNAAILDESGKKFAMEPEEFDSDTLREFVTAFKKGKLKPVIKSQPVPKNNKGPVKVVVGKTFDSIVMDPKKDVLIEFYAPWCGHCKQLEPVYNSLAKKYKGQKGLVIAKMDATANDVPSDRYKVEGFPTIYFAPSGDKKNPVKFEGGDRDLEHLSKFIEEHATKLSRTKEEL
Excerpt: In addition to PDI, ERp57 (PDIA3) and ERp72 (PDIA4) are two other major members of the PDI family in both platelets and A549 cells.[62],[63]

SMILES: CC(=O)OC1O[C@H](CSC2=CC(=O)c3cccc(O)c3C2=O)[C@@H](OC(C)=O)C(OC(C)=O)[C@H]1OC(C)=O (stereo in doubt) [Compound 18, 2-(1,2,3,4-Tetra-O-acetyl-6-deoxy-6-thio-α-D-glucopyranose)-8-hydroxynaphthalene-1,4-dione]
- platelet-enhanced cancer cell growth (A549 cancer cells): blunted platelet-enhanced cancer cell growth
- S.I. (EAhy926/RPMI8226), selectivity index ([1]; 24 h IC50 ratio): 12.8
- IC50 ([1]; RPMI-8226, 24 h, read-out: RPMI8226 IC50): 570 ± 10 nM
- IC50 ([1]; RPMI-8226, 72 h, read-out: RPMI8226 IC50, 72 h): 61 nM
- Permeability (%) [2]: 10.64%
- IC50 (washed human platelets [3]): 560 ± 170 nM
- IC50 (platelet surface PDI): 420 ± 70 nM
- IC50 [4]: 7270 ± 80 nM
- IC50 (washed human platelets [5]): 950 ± 100 nM
- IC50 (breast cancer MDA-MB-231): 6960 ± 470 nM
- IC50 (glioma U87): > 20000 nM
- IC50 [6]: 1870 ± 560 nM
- IC50 (ERp72 (PDIA4)): 13700 ± 660 nM
